Laboratory results reported in PMC6047346 (Journal of medicinal chemistry, 2017).
Read-outs that look alike come from different tables or passages of the source.

Columns and labels:
human SphK1 = human SphK1 (Homo sapiens, UniProt Q9NYA1); assay: Sphingosine kinase assay, recombinant human SphK1, γ-[32P]ATP; details: for remaining activity at 0.3 µM: read-out: hSphK1 (SphK activity, % control, no inhibitor added)
human SphK2 = target: T1, human SphK2 (Homo sapiens, UniProt Q9NRA0); assay: Sphingosine kinase assay, recombinant human SphK2, γ-[32P]ATP; details: for hSphK2 (SphK activity, % control, no inhibitor added): compounds at 0.3 μM, triplicate, 10 μM sphingosine, 250 μM γ-[32P]ATP; for inhibition at 0.3 µM: read-out: SphK2 inhibition (decrease of activity)
T1 sequence (Q9NRA0 1-654): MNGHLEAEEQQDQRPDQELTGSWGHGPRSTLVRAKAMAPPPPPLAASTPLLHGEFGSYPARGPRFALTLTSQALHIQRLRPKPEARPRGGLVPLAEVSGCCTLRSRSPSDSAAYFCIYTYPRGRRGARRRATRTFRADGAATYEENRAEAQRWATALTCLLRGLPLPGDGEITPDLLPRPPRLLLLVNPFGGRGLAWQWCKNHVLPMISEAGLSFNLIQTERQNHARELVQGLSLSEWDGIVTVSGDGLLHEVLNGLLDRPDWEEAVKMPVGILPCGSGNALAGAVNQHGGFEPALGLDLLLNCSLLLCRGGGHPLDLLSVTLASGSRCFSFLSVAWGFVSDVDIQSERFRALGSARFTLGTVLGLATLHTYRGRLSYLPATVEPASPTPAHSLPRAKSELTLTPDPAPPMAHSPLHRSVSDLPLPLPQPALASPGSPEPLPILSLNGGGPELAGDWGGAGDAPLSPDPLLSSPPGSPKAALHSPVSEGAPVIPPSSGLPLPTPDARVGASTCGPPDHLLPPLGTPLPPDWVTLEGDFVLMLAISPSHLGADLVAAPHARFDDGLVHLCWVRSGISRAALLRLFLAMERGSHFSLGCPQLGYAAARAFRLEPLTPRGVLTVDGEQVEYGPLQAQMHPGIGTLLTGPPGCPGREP

U937 cells [1] = assay: Sphingolipid; assay type: cell-based, human; details: 2 h incubation, LC-MS-MS
rats = details: cited from earlier work
SphK1 = details: both the rat and human enzymes; cited from earlier work
U937 cells [2] = details: cited from earlier work
C57BL/6 mice = assay: Blood S1P levels in mice after ip dosing, LC-MS-MS; assay type: in vivo; details: single 10 mg/kg ip dose
[3] = read-out: hSphK2 (SphK activity, % control, no inhibitor added)
[4] = read-out: SphK2 activity remaining

Sequence of human SphK1 (Q9NYA1 whole entry): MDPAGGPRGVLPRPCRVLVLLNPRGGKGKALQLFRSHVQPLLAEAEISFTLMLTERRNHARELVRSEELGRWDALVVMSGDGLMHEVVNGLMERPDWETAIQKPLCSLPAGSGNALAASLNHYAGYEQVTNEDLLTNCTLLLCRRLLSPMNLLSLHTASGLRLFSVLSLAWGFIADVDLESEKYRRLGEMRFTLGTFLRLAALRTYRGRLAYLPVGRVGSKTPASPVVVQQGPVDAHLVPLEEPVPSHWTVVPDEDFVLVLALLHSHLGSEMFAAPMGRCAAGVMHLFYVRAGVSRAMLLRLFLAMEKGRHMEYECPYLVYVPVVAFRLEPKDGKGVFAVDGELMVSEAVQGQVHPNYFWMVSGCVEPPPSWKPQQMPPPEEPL

Cl.N=C(N)N1CCC[C@H]1Cc1nc(-c2ccc(Nc3nc(-c4ccccc4)cs3)cc2)no1 [Compound 20a, (S)-amino(2-((3-(4-((4-phenylthiazol-2-yl)amino)phenyl)-1,2,4-oxadiazol-5-yl)methyl)pyrrolidin-1-yl)methaniminium chloride]
SphK1 inhibition, in words (human SphK1; screen at 0.3 μM): poor inhibition
SphK2 inhibition, in words (human SphK2; screen at 0.3 μM): poor inhibition

Cl.N=C(N)N1CCC[C@H]1Cc1nc(-c2ccc(Nc3nc(-c4cccc(C(F)(F)F)c4)cs3)cc2)no1 [Compound 20l, (S)-amino(2-((3-(4-((4-(3-(trifluoromethyl)phenyl)thiazol-2-yl)amino)phenyl)-1,2,4-oxadiazol-5-yl)methyl)pyrrolidin-1-yl)methaniminium chloride]
S1P levels in U937 cells (U937 cells [1]): concentration-dependent decrease
Sph (sphingosine) levels in U937 cells (U937 cells [1]): remained constant

(S)-(2-((3-(4-((4-([1,1′-biphenyl]-4-yl)thiazol-2-yl)amino)phenyl)-1,2,4-oxadiazol-5-yl)methyl)pyrrolidin-1-yl)(amino)methaniminium chloride [Compound 34]
hSphK2 (SphK activity, % control, no inhibitor added) (human SphK2): 100 ±5 % control
SphK2 inhibition, in words (human SphK2; concentrations up to 1 μM): completely inactive

Cl.N=C(N)N1CCC[C@H]1Cc1nc(-c2ccc(Nc3nc(-c4cc(C(F)(F)F)cc(C(F)(F)F)c4)cs3)cc2)no1 [Compound 20bb, (S)-amino(2-((3-(4-((4-(3,5-bis(trifluoromethyl)phenyl)thiazol-2-yl)amino)phenyl)-1,2,4-oxadiazol-5-yl)methyl)pyrrolidin-1-yl)methaniminium chloride]
SphK1 inhibition, in words (human SphK1; concentrations up to 1 μM): inactive

Cl.N=C(N)N1CCC[C@H]1Cc1nc(-c2ccc(Nc3nc(-c4cccnc4)cs3)cc2)no1 [Compound 20c, (S)-amino(2-((3-(4-((4-(pyridin-3-yl)thiazol-2-yl)amino)phenyl)-1,2,4-oxadiazol-5-yl)methyl)pyrrolidin-1-yl)methaniminium chloride]
SphK1 inhibition, in words (human SphK1; screen at 0.3 μM): inactive
SphK2 inhibition, in words (human SphK2; screen at 0.3 μM): inactive

COc1ccc(-c2csc(Nc3ccc(-c4noc(C[C@@H]5CCCN5C(=N)N)n4)cc3)n2)cc1 [Compound 20o, (S)-amino(2-((3-(4-((4-(4-methoxyphenyl)thiazol-2-yl)amino)phenyl)-1,2,4-oxadiazol-5-yl)methyl)pyrrolidin-1-yl)methaniminium chloride]
remaining activity at 0.3 µM (human SphK1): 58 ± 4%
inhibition at 0.3 µM (human SphK2): < 30%
remaining activity at 0.3 µM (human SphK2; [3]): 82 ± 6%

Cl.N=C(N)N1CCC[C@H]1Cc1nc(-c2ccc(Nc3nc(-c4ccc(-c5ccc(C(F)(F)F)cc5)cc4)cs3)cc2)no1 [Compound 23c, (S)-amino(2-((3-(4-((4-(4′-(trifluoromethyl)-[1,1′-biphenyl]-4-yl)thiazol-2-yl)amino)phenyl)-1,2,4-oxadiazol-5-yl)methyl)pyrrolidin-1-yl)methaniminium chloride]
SphK1 inhibition, in words (human SphK1; screen at 0.3 μM): inactive
SphK2 inhibition, in words (human SphK2; screen at 0.3 μM): inactive

N=C(N)N1CCC[C@H]1Cc1nc(-c2ccc(Nc3nc(-c4cccc(OC(F)(F)F)c4)cs3)cc2)no1 [Compound 20s, (S)-amino(2-((3-(4-((4-(3-(trifluoromethoxy)phenyl)thiazol-2-yl)amino)phenyl)-1,2,4-oxadiazol-5-yl)methyl)pyrrolidin-1-yl)methaniminium chloride]
remaining activity at 0.3 µM (human SphK1): 90 ± 1%
remaining activity at 0.3 µM (human SphK2; [3]): 100 ± 2%

Cc1ccc(-c2csc(Nc3ccc(-c4noc(C[C@@H]5CCCN5C(=N)N)n4)cc3)n2)cc1 [Compound 20n, (S)-amino(2-((3-(4-((4-(p-tolyl)thiazol-2-yl)amino)phenyl)-1,2,4-oxadiazol-5-yl)methyl)pyrrolidin-1-yl)methaniminium chloride]
remaining activity at 0.3 µM (human SphK1): 89 ± 0.7%
inhibition at 0.3 µM (human SphK2): < 30%
remaining activity at 0.3 µM (human SphK2; [3]): 44 ± 12%

CCCCCCCCc1ccc(-c2noc(C[C@@H]3CCCN3C(=N)N)n2)cc1 [Compound 3]
S1P levels in the bloodstream of rats (rats): reduce S1P levels
selectivity for SphK1 over SphK2 (SphK1): > 100 fold
S1P levels in cultured human U937 leukemia cells (U937 cells [2]): reduce S1P levels

COc1ccc(-c2csc(Nc3ccc(-c4noc(C[C@@H]5CCCN5C(=N)N)n4)cc3)n2)cc1Cl.Cl [Compound 20v, (S)-amino(2-((3-(4-((4-(3-chloro-4-methoxyphenyl)thiazol-2-yl)amino)phenyl)-1,2,4-oxadiazol-5-yl)methyl)pyrrolidin-1-yl)methaniminium chloride]
SphK1 inhibition, in words (human SphK1; screen at 0.3 μM): no SphK1 inhibition
remaining activity at 0.3 µM (human SphK2; [4]): ~70%

CCOc1ccc(-c2csc(Nc3ccc(-c4noc(C[C@@H]5CCCN5C(=N)N)n4)cc3)n2)cc1 [Compound 20p, (S)-amino(2-((3-(4-((4-(4-ethoxyphenyl)thiazol-2-yl)amino)phenyl)-1,2,4-oxadiazol-5-yl)methyl)pyrrolidin-1-yl)methaniminium chloride]
remaining activity at 0.3 µM (human SphK1): 75 ± 0.2%
inhibition at 0.3 µM (human SphK2): < 30%
remaining activity at 0.3 µM (human SphK2; [3]): 80 ± 7%

N=C(N)N1CCC[C@H]1Cc1nc(-c2ccc(Nc3nc(-c4ccncc4)cs3)cc2)no1.O=C(O)C(F)(F)F [Compound 20b, (S)-amino(2-((3-(4-((4-(pyridin-4-yl)thiazol-2-yl)amino)phenyl)-1,2,4-oxadiazol-5-yl)methyl)pyrrolidin-1-yl)methaniminium trifluoroacetate]
SphK1 inhibition, in words (human SphK1; screen at 0.3 μM): inactive
SphK2 inhibition, in words (human SphK2; screen at 0.3 μM): inactive

N=C(N)N1CCC[C@H]1Cc1nc(-c2ccc(Nc3nc(-c4ccc(OC(F)(F)F)cc4)cs3)cc2)no1 [Compound 20r, (S)-amino(2-((3-(4-((4-(4-(trifluoromethoxy)phenyl)thiazol-2-yl)amino)phenyl)-1,2,4-oxadiazol-5-yl)methyl)pyrrolidin-1-yl)methaniminium chloride]
remaining activity at 0.3 µM (human SphK2; [4]): ~40%
remaining activity at 0.3 µM (human SphK2; [3]): 84 ± 2%

Cl.N=C(N)N1CCC[C@H]1Cc1nc(-c2ccc(Nc3nc(-c4ccc(-c5ccccc5)cc4)cs3)cc2)no1 [Compound 20dd, (S)-(2-((3-(4-((4-([1,1′-biphenyl]-4-yl)thiazol-2-yl)amino)phenyl)-1,2,4-oxadiazol-5-yl)methyl)pyrrolidin-1-yl)(amino)methaniminium chloride]
blood S1P levels (C57BL/6 mice; after 24 hours): returned to basal levels
blood S1P levels (C57BL/6 mice; two and six hour time points): increased
S1P levels in U937 cells (U937 cells [1]): concentration-dependent decrease
Sph (sphingosine) levels in U937 cells (U937 cells [1]): remained constant

(S)-amino(2-((3-(4-((4-(benzofuran-2-yl)thiazol-2-yl)amino)phenyl)-1,2,4-oxadiazol-5-yl)methyl)pyrrolidin-1-yl)methaniminium chloride [Compound 20ee]
hSphK2 (SphK activity, % control, no inhibitor added) (human SphK2): 67 ±5 % control

N=C(N)N1CCC[C@H]1Cc1nc(-c2ccc(Oc3nc(-c4ccc(C(F)(F)F)cc4)cs3)cc2)no1 [Compound 31, (S)-amino(2-((3-(4-((4-(4-(trifluoromethyl)phenyl)thiazol-2-yl)oxy)phenyl)-1,2,4-oxadiazol-5-yl)methyl)pyrrolidin-1-yl)methaniminium chloride]
inhibition at 0.3 µM (human SphK1; read-out: SphK1 inhibition (decrease of activity)): ~45%
inhibition at 0.3 µM (human SphK2): ~45%

Cl.N=C(N)N1CCC[C@H]1Cc1nc(-c2ccc(Nc3nc(-c4ccc(-c5cccc(C(F)(F)F)c5)cc4)cs3)cc2)no1 [Compound 23d, (S)-amino(2-((3-(4-((4-(3′-(trifluoromethyl)-[1,1′-biphenyl]-4-yl)thiazol-2-yl)amino)phenyl)-1,2,4-oxadiazol-5-yl)methyl)pyrrolidin-1-yl)methaniminium chloride]
SphK1 inhibition, in words (human SphK1; screen at 0.3 μM): inactive
SphK2 inhibition, in words (human SphK2; screen at 0.3 μM): inactive
